Publication PMC8067507, “Aryl Urea Based Scaffolds for Multitarget Drug Discovery in Anticancer Immunotherapies” (Pharmaceuticals, 2021)

Test system: A549 (pulmonary adenocarcinoma)
Experiment: Cell proliferation assay (MTT)
Assay type: cell-based
Settings: Homo sapiens, A549, 48 h, 2 days incubation, average ± SD of three experiments
Description: (§1) The ability of Ureas 13–33 to inhibit cell proliferation was established by means of their IC50 values towards the human tumor cell lines HT-29 (colon adenocarcinoma), MCF-7 (breast adenocarcinoma), HeLa (epithelioid cervix carcinoma) and A549 (pulmonary adenocarcinoma), as well as towards the endothelial cell line HMEC-1 (human microvascular endothelial cells) and the non-tumor cell line HEK-293 (human embryonic kidney cells).
(§2) HT-29, MCF-7, HeLa, A549 and HEK-293 cell lines were maintained in Dulbecco’s modified Eagle’s medium (DMEM) containing glucose (1 g/L), glutamine (2 mM), penicillin (50 μg/mL), streptomycin (50 μg/mL), and amphotericin B (1.25 μg/mL), supplemented with 10% FBS. HMEC-1 cell line was maintained in Dulbecco’s modified Eagle’s medium (DMEM)/low glucose containing glutamine (2 mM), penicillin (50 μg/mL), streptomycin (50 μg/mL), and amphotericin B (1.25 μg/mL), supplemented with 10% FBS. For the development of tube formation assays in Matrigel, HMEC-1 cells were cultured in EGM-2MV Medium supplemented with EGM-2MV SingleQuots.
(§3) In 96-well plates, 3 × 10^3 (HeLa, A549, HMEC-1, HEK-293) or 5 × 10^3 (HT-29, MCF-7) cells per well were incubated with serial dilutions of the tested compounds in a total volume of 100 μL of their respective growth media. The 3-(4,5-dimethylthiazol-2-yl)-2,5-diphenyltetrazolium bromide (MTT; Sigma Chemical Co.) dye reduction assay in 96-well microplates was used. After 2 days of incubation (37 °C, 5% CO2 in a humid atmosphere), 10 μL of MTT (5 mg/mL in phosphate-buffered saline, PBS) was added to each well, and the plate was incubated for a further 3 h (37 °C). After that, the supernatant was discarded and replaced by 100 µL of DMSO to dissolve formazan crystals. The absorbance was then read at 540 nm by spectrophotometry. For all concentrations of compound, cell viability was expressed as the percentage of the ratio between the mean absorbance of treated cells and the mean absorbance of untreated cells. Three independent experiments were performed, and the IC50 values (i.e., concentration half inhibiting cell proliferation) were graphically determined using GraphPad Prism 4 software.

SMILES	IC50 [µM]
Cc1c(COc2ccc(CN3CCCCC3C(=O)O)cc2Br)cccc1-c1ccccc1 (stereo not shown) [BMS-8, reference compound]	6 ± 1
COc1ccc(/C=C\c2cccc(NC(=O)Nc3cccc(Br)c3)c2)cc1 [Compound 15]	38 ± 6
COc1ccc(/C=C/c2cccc(NC(=O)Nc3ccc(Br)cc3)c2)cc1 [Compound 23]	3 ± 0.4
COc1ccc(CCc2cccc(NC(=O)Nc3ccc(OC)cc3)c2)cc1 [Compound 33]	8 ± 3

Test system: HEK-293 (human embryonic kidney cells)
Experiment: Cell proliferation assay (MTT)
Assay type: cell-based
Settings: HEK293, 48 h, 2 days incubation, average ± SD of three experiments
Description: as §1, §2, §3

SMILES	IC50 [µM]
Cc1c(COc2ccc(CN3CCCCC3C(=O)O)cc2Br)cccc1-c1ccccc1 (stereo not shown) [BMS-8, reference compound]	60 ± 10
COc1ccc(/C=C\c2cccc(NC(=O)Nc3cccc(Br)c3)c2)cc1 [Compound 15]	23 ± 2
COc1ccc(/C=C/c2cccc(NC(=O)Nc3ccc(Br)cc3)c2)cc1 [Compound 23]	0.7 ± 0.3
COc1ccc(CCc2cccc(NC(=O)Nc3ccc(OC)cc3)c2)cc1 [Compound 33]	0.9 ± 0.07

Test system: HMEC-1 (human microvascular endothelial cells)
Experiment: Cell proliferation assay (MTT)
Assay type: cell-based
Settings: HMEC-1, 48 h, 2 days incubation, average ± SD of three experiments
Description: as §1, §2, §3

SMILES	IC50 [µM]
COc1ccc(/C=C\c2cccc(NC(=O)Nc3cccc(Br)c3)c2)cc1 [Compound 15]	24 ± 4
COc1ccc(/C=C/c2cccc(NC(=O)Nc3ccc(Br)cc3)c2)cc1 [Compound 23]	1.8 ± 0.3
COc1ccc(CCc2cccc(NC(=O)Nc3ccc(OC)cc3)c2)cc1 [Compound 33]	0.9 ± 0.03

Test system: HT-29 (colon adenocarcinoma)
Experiment: Cell proliferation assay (MTT)
Assay type: cell-based
Settings: Homo sapiens, HT-29, 48 h, 2 days incubation, average ± SD of three experiments
Description: as §1, §2, §3

SMILES	IC50 [µM]
Cc1c(COc2ccc(CN3CCCCC3C(=O)O)cc2Br)cccc1-c1ccccc1 (stereo not shown) [BMS-8, reference compound]	19 ± 2
COc1ccc(/C=C\c2cccc(NC(=O)Nc3cccc(Br)c3)c2)cc1 [Compound 15]	25 ± 2
COc1ccc(/C=C/c2cccc(NC(=O)Nc3ccc(Br)cc3)c2)cc1 [Compound 23]	0.4 ± 0.3
COc1ccc(CCc2cccc(NC(=O)Nc3ccc(OC)cc3)c2)cc1 [Compound 33]	4.4 ± 0.8

Test system: HeLa (epithelioid cervix carcinoma)
Experiment: Cell proliferation assay (MTT)
Assay type: cell-based
Settings: Homo sapiens, 48 h, 2 days incubation, average ± SD of three experiments
Description: as §1, §2, §3

SMILES	IC50 [µM]
Cc1c(COc2ccc(CN3CCCCC3C(=O)O)cc2Br)cccc1-c1ccccc1 (stereo not shown) [BMS-8, reference compound]	> 100
COc1ccc(/C=C\c2cccc(NC(=O)Nc3cccc(Br)c3)c2)cc1 [Compound 15]	30 ± 7
COc1ccc(/C=C/c2cccc(NC(=O)Nc3ccc(Br)cc3)c2)cc1 [Compound 23]	3.1 ± 0.1
COc1ccc(CCc2cccc(NC(=O)Nc3ccc(OC)cc3)c2)cc1 [Compound 33]	1.4 ± 0.5

Test system: MCF-7 (breast adenocarcinoma)
Experiment: Cell proliferation assay (MTT)
Assay type: cell-based
Settings: Homo sapiens, MCF7, 48 h, 2 days incubation, average ± SD of three experiments
Description: as §1, §2, §3

SMILES	IC50 [µM]
Cc1c(COc2ccc(CN3CCCCC3C(=O)O)cc2Br)cccc1-c1ccccc1 (stereo not shown) [BMS-8, reference compound]	20 ± 3
COc1ccc(/C=C\c2cccc(NC(=O)Nc3cccc(Br)c3)c2)cc1 [Compound 15]	28 ± 5
COc1ccc(/C=C/c2cccc(NC(=O)Nc3ccc(Br)cc3)c2)cc1 [Compound 23]	0.3 ± 0.2
COc1ccc(CCc2cccc(NC(=O)Nc3ccc(OC)cc3)c2)cc1 [Compound 33]	1.5 ± 0.6

Test system: HMEC-1 cells
Experiment: Tube formation inhibition assay
Assay type: cell-based, human
Settings: HMEC-1 on Matrigel, 20 h incubation; average of three experiments
Procedure: as §2
Wells of an IBIDI μ-slide angiogenesis (IBIDI, Martinsried, Germany) were coated with 12 μL of Matrigel® (10 mg/mL, BD Biosciences) at 4 °C. After gelatinization at 37 °C for 30 min, HMEC-1 cells were seeded at 2 × 10^4 cells/well in 35 μL of culture medium on top of the Matrigel and were incubated 30 min at 37 °C while are attached. Then, compounds were added dissolved in 35 μL of culture medium and after 20 h of incubation at 37 °C, tube destruction was evaluated.

SMILES	Minimum Active Conc. (inhibition of tube formation) [µM]
COc1ccc(/C=C/c2cccc(NC(=O)Nc3ccc(Br)cc3)c2)cc1 [Compound 23]	1

Molecular target: T1, PD-L1 (Homo sapiens, UniProt Q9NZQ7)
T1 sequence (Q9NZQ7 19-290): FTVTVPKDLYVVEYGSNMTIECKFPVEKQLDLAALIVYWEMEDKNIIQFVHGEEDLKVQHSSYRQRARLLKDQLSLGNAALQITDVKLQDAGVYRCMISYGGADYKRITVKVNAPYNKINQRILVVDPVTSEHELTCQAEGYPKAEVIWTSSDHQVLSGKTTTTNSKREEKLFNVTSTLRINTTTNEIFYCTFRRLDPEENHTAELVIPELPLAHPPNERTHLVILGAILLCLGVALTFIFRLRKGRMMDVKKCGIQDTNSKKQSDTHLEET
Experiment: PD-L1 quantification by flow cytometry in HT-29
Assay type: cell-based
Settings: HT-29, 10 μM, 24 h, referred to control (DMSO)
Procedure: (§4) We evaluated the effect of the selected compounds on PD-L1 and on c-Myc proteins by flow cytometry after 24 h treatment at 10 μM concentration of compounds. Both, PD-L1 and c-Myc were relatively determined using DMSO treated cells as a negative control and BMS-8 as a positive one.
(§5) For the detection of total PD-L1 and c-Myc, cancer cells were seeded (3 × 10^5 cells/well) in 6-well plates and were incubated with the corresponding compounds for 24 h. Then they were collected, fixed, treated with 0.5% Triton^TM X-100 and stained with Alexa Fluor® 647 Rabbit monoclonal Anti-PD-L1 (ab215251) and FITC Rabbit monoclonal anti-c-Myc (ab223913).
(§6) We also checked results performing ELISA tests. For ELISA tests, lysates were collected, protein quantification was carried out by Bradford test and, then, PD-L1 and c-Myc were quantified using Human PD-L1 ELISA Kit 28-8 (ab214565) and c-Myc (Total) Human ELISA Kit (KHO2041), respectively, according to the manufacturer’s instructions.

SMILES	PD-L1 (%) relative expression [%]
Cc1c(COc2ccc(CN3CCCCC3C(=O)O)cc2Br)cccc1-c1ccccc1 (stereo not shown) [BMS-8, reference compound]	62 ± 3
COc1ccc(/C=C/c2cccc(NC(=O)Nc3ccc(Br)cc3)c2)cc1 [Compound 23]	18 ± 5
COc1ccc(CCc2cccc(NC(=O)Nc3ccc(OC)cc3)c2)cc1 [Compound 33]	38 ± 13

Test system: c-Myc
Experiment: c-Myc quantification by flow cytometry in HT-29
Assay type: cell-based, human
Settings: HT-29, 10 μM, 24 h, referred to control (DMSO)
Procedure: as §4, §5, §6

SMILES	c-Myc (%) relative expression [%]
Cc1c(COc2ccc(CN3CCCCC3C(=O)O)cc2Br)cccc1-c1ccccc1 (stereo not shown) [BMS-8, reference compound]	99 ± 4
COc1ccc(/C=C/c2cccc(NC(=O)Nc3ccc(Br)cc3)c2)cc1 [Compound 23]	49 ± 8
COc1ccc(CCc2cccc(NC(=O)Nc3ccc(OC)cc3)c2)cc1 [Compound 33]	70 ± 10

Test system: c-Myc
Experiment: c-Myc quantification by flow cytometry in A-549
Assay type: cell-based, human
Settings: A-549, 10 μM, 24 h, referred to control (DMSO)
Procedure: as §4, §5, §6

SMILES	c-Myc (%) relative expression [%]
Cc1c(COc2ccc(CN3CCCCC3C(=O)O)cc2Br)cccc1-c1ccccc1 (stereo not shown) [BMS-8, reference compound]	60 ± 7
COc1ccc(/C=C/c2cccc(NC(=O)Nc3ccc(Br)cc3)c2)cc1 [Compound 23]	34 ± 4
COc1ccc(CCc2cccc(NC(=O)Nc3ccc(OC)cc3)c2)cc1 [Compound 33]	83 ± 12

Test system: HT-29 cells
Experiment: Cell proliferation evaluation in co-cultures: HT-29 with Jurkat T cells
Assay type: cell-based, human
Settings: IFN-γ stimulated HT-29 co-cultured with Jurkat T cells, 10 µM, 24 h; five experiments
Procedure: We also studied the effect of Compounds 16, 23, 26 and 33 on tumor cell proliferation in the presence of PD-1 expressing Jurkat T-cells. For this assay, first interferon γ stimulated HT-29 cells were treated for 24 h with the selected compounds at 10 µM in presence of Jurkat T cells. Then, living cells were counted using trypan blue and a Neubauer chamber and by flow cytometry.
In 12-well plates, 10^5 HT-29 cells per well were seeded and incubated for 24 h with cell culture medium supplemented with IFN-γ (10 ng/mL; human, Invitrogen®) then medium was change by one containing 4 × 10^5 Jurkat T cells per well and 10 μM of the corresponding compound or DMSO for the control. After 24 h of incubation, supernatants were collected to determine Jurkat T cell living cells and, on the other hand, HT-29 cells were collected with trypsin. Both types of suspension cells were counted with the Neubauer chamber and trypan blue and also by flow cytometry.

SMILES	Living HT-29 cell proliferation (%)
Cc1c(COc2ccc(CN3CCCCC3C(=O)O)cc2Br)cccc1-c1ccccc1 (stereo not shown) [BMS-8, reference compound]	45
COc1ccc(/C=C/c2cccc(NC(=O)Nc3ccc(Br)cc3)c2)cc1 [Compound 23]	64
COc1ccc(CCc2cccc(NC(=O)Nc3ccc(OC)cc3)c2)cc1 [Compound 33]	62

Test system: not given
Experiment: not given
Settings: not given

SMILES	melting point [°C]
COc1ccc(/C=C\c2cccc(NC(=O)Nc3cccc(Br)c3)c2)cc1 [Compound 15]	174

Molecular target: T1, PD-L1
Experiment: PD-L1 quantification by flow cytometry in A-549
Assay type: cell-based
Design: endogenous in cells; host or cells: A-549 cancer cells
Settings: A-549, 10 μM, 24 h, referred to control (DMSO)
Procedure: as §4, §5, §6

SMILES	PD-L1 (%) relative expression [%]
Cc1c(COc2ccc(CN3CCCCC3C(=O)O)cc2Br)cccc1-c1ccccc1 (stereo not shown) [BMS-8, reference compound]	68 ± 5
COc1ccc(/C=C/c2cccc(NC(=O)Nc3ccc(Br)cc3)c2)cc1 [Compound 23]	16 ± 6
COc1ccc(CCc2cccc(NC(=O)Nc3ccc(OC)cc3)c2)cc1 [Compound 33]	42 ± 11

Molecular target: T2, VEGFR-2 (Homo sapiens, UniProt P35968)
T2 sequence (P35968 20-1356): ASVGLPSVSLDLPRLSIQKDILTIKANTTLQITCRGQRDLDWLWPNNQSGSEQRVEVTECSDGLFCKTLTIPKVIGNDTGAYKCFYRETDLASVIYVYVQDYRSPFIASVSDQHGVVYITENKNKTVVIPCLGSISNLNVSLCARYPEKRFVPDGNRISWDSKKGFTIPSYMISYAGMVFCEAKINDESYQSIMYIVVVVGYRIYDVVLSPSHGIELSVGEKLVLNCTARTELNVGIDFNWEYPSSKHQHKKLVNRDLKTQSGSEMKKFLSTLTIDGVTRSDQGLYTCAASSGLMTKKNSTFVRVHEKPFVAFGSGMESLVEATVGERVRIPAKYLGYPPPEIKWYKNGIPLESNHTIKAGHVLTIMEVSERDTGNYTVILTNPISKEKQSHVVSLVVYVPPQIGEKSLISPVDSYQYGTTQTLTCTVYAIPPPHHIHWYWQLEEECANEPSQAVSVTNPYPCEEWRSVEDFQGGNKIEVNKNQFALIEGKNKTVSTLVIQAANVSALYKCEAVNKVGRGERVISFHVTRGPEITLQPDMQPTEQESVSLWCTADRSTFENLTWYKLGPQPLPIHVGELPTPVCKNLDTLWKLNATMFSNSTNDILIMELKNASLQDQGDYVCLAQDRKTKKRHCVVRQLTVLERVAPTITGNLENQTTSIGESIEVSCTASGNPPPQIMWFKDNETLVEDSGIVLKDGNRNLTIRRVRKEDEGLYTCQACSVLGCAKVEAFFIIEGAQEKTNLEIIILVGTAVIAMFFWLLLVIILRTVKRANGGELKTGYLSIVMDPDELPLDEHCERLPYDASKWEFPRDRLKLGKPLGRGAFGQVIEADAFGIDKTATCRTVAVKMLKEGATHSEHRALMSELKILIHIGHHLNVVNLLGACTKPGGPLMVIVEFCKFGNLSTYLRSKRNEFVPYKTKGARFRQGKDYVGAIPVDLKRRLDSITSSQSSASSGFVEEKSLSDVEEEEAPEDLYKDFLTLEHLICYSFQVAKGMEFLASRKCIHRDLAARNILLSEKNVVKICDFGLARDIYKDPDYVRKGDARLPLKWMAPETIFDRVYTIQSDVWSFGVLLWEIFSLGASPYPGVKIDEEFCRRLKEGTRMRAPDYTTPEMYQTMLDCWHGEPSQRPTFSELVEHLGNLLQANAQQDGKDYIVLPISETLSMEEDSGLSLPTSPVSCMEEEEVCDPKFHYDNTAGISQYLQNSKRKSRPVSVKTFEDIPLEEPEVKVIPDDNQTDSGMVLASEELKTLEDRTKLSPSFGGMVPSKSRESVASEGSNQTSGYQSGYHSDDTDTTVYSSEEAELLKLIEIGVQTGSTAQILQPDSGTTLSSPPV
Experiment: VEGFR-2 quantification by flow cytometry in HMEC-1
Assay type: cell-based
Design: Both membrane and total VEGFR-2 were relatively determined using dimethyl sulfoxide (DMSO) treated cells as a negative control; endogenous in cells; host or cells: HMEC-1 (human microvascular endothelial cells)
Settings: 10 µM, 24 h, relative to DMSO control
Procedure: (§7) We performed the study on both a HT-29 cancer cell line and a human microvessel endothelial cell line (HMEC-1). […] The effect of these selected derivatives on VEGFR-2, on HT-29 tumor cell line and on human microvessel endothelial cells (HMEC) was determined by flow cytometry technique. […] For these assays, cells were incubated for 24 h in the presence of the corresponding compounds at 10 µM concentration.

SMILES	Membrane VEGFR-2 (%)	Total VEGFR-2 (%)
COc1ccc(/C=C/c2cccc(NC(=O)Nc3ccc(Br)cc3)c2)cc1 [Compound 23]	39 ± 5	74 ± 8
COc1ccc(CCc2cccc(NC(=O)Nc3ccc(OC)cc3)c2)cc1 [Compound 33]	66 ± 5	93 ± 8

Molecular target: T2, VEGFR-2
Experiment: VEGFR-2 quantification by flow cytometry in HT-29
Assay type: cell-based
Design: Both membrane and total VEGFR-2 were relatively determined using dimethyl sulfoxide (DMSO) treated cells as a negative control; endogenous in cells; host or cells: HT-29 (colon adenocarcinoma) and HMEC-1 (human microvascular endothelial cells)
Settings: 10 µM, 24 h; statement for HT-29 and HMEC-1; read-out: inhibition of both membrane and total VEGFR-2
Procedure: as §7

SMILES	inhibition at 10 µM [%]
COc1ccc(/C=C/c2cccc(NC(=O)Nc3ccc(Br)cc3)c2)cc1 [Compound 23]	> 50

Same assay, conditions: HT-29, 10 µM, 24 h, relative to DMSO control

SMILES	Membrane VEGFR-2 (%)	Total VEGFR-2 (%)
COc1ccc(/C=C/c2cccc(NC(=O)Nc3ccc(Br)cc3)c2)cc1 [Compound 23]	36 ± 9	39 ± 8
COc1ccc(CCc2cccc(NC(=O)Nc3ccc(OC)cc3)c2)cc1 [Compound 33]	68 ± 13	100 ± 10
